# Measured values taken from ChEMBL document CHEMBL4308841, “Synthesis, in vitro antiproliferative activity, and kinase inhibitory effects of pyrazole-containing diarylureas and diarylamides” (Eur J Med Chem, 2018).
# Experiments:
# A549 = experiment: Growth inhibition of human A549/ATCC cells assessed as cell growth at 0.1 uM incubated for 48 hrs by sulforhodamine B assay relative to control; type: functional; conditions: A549, 48 h, read-out: Activity
# COLO 205 = experiment: Growth inhibition of human COLO205 cells assessed as cell growth at 0.1 uM incubated for 48 hrs by sulforhodamine B assay relative to control; type: functional; conditions: COLO 205, 48 h, read-out: Activity
# CCRF-CEM [1] = experiment: Growth inhibition of human CCRF-CEM cells assessed as cell growth at 1 uM incubated for 48 hrs by sulforhodamine B assay relative to control; type: functional; conditions: read-out: Activity
# SW-620 = experiment: Growth inhibition of human SW620 cells incubated for 48 hrs by sulforhodamine B assay; type: functional, cell-based; conditions: SW-620, 48 h
# RPMI-8226 = experiment: Growth inhibition of human RPMI8226 cells assessed as cell growth at 1 uM incubated for 48 hrs by sulforhodamine B assay relative to control; type: functional; conditions: RPMI-8226, 48 h, read-out: Activity
# MDA-MB-435 = experiment: Growth inhibition of human MDA-MB-435 cells assessed as cell growth at 0.1 uM incubated for 48 hrs by sulforhodamine B assay relative to control; type: functional; conditions: MDA-MB-435, 48 h, read-out: Activity
# Malme-3M [2] = experiment: Growth inhibition of human MALME-3M cells incubated for 48 hrs by sulforhodamine B assay; type: functional, cell-based
# MDA-MB-231 = experiment: Growth inhibition of human MDA-MB-231 cells assessed as cell growth at 0.01 uM incubated for 48 hrs by sulforhodamine B assay relative to control; type: functional; conditions: MDA-MB-231, 48 h, read-out: Activity
# SF-268 = experiment: Growth inhibition of human SF268 cells assessed as cell growth at 1 uM incubated for 48 hrs by sulforhodamine B assay relative to control; type: functional; conditions: SF-268, 48 h, read-out: Activity
# RXF 393 = experiment: Growth inhibition of human RXF393 cells assessed as cell growth at 100 uM incubated for 48 hrs by sulforhodamine B assay relative to control; type: functional; conditions: RXF 393, 48 h, read-out: Activity
# SK-MEL-28 = experiment: Growth inhibition of human SK-MEL-28 cells assessed as cell growth at 0.1 uM incubated for 48 hrs by sulforhodamine B assay relative to control; type: functional; conditions: SK-MEL-28, 48 h, read-out: Activity
# NCI/ADR-RES = experiment: Growth inhibition of human NCI/ADR-RES cells assessed as cell growth at 1 uM incubated for 48 hrs by sulforhodamine B assay relative to control; type: functional; conditions: read-out: Activity
# PC-3 = experiment: Growth inhibition of human PC3 cells assessed as cell growth at 0.1 uM incubated for 48 hrs by sulforhodamine B assay relative to control; type: functional; conditions: PC-3, 48 h, read-out: Activity
# MDA-MB-468 [3] = experiment: Growth inhibition of human MDA-MB-468 cells assessed as cell growth at 1 uM incubated for 48 hrs by sulforhodamine B assay relative to control; type: functional; conditions: MDA-MB-468, 48 h, read-out: Activity
# T47D = experiment: Growth inhibition of human T47D cells assessed as cell growth at 100 uM incubated for 48 hrs by sulforhodamine B assay relative to control; type: functional; conditions: read-out: Activity
# U-251 = experiment: Growth inhibition of human U251 cells assessed as cell growth at 100 uM incubated for 48 hrs by sulforhodamine B assay relative to control; type: functional; conditions: U-251, 48 h, read-out: Activity
# HOP-62 = experiment: Growth inhibition of human HOP62 cells assessed as cell growth at 100 uM incubated for 48 hrs by sulforhodamine B assay relative to control; type: functional; conditions: HOP-62, 48 h, read-out: Activity
# NCI-H460 = experiment: Growth inhibition of human NCI-H460 cells assessed as cell growth at 100 uM incubated for 48 hrs by sulforhodamine B assay relative to control; type: functional; conditions: NCI-H460, 48 h, read-out: Activity
# UACC-257 = experiment: Growth inhibition of human UACC257 cells assessed as cell growth at 0.1 uM incubated for 48 hrs by sulforhodamine B assay relative to control; type: functional; conditions: UACC-257, 48 h, read-out: Activity
# M14 = experiment: Growth inhibition of human M14 cells assessed as cell growth at 100 uM incubated for 48 hrs by sulforhodamine B assay relative to control; type: functional; conditions: M14, 48 h, read-out: Activity
# NCI-H226 = experiment: Growth inhibition of human NCI-H226 cells incubated for 48 hrs by sulforhodamine B assay; type: functional, cell-based; conditions: NCI-H226, 48 h
# Malme-3M [4] = experiment: Growth inhibition of human MALME-3M cells assessed as cell growth at 0.1 uM incubated for 48 hrs by sulforhodamine B assay relative to control; type: functional; conditions: read-out: Activity
# CCRF-CEM [5] = experiment: Growth inhibition of human CCRF-CEM cells incubated for 48 hrs by sulforhodamine B assay; type: functional, cell-based
# SK-MEL-5 = experiment: Growth inhibition of human SK-MEL-5 cells assessed as cell growth at 0.1 uM incubated for 48 hrs by sulforhodamine B assay relative to control; type: functional; conditions: SK-MEL-5, 48 h, read-out: Activity
# NCI-H322M = experiment: Growth inhibition of human NCI-H322M cells assessed as cell growth at 100 uM incubated for 48 hrs by sulforhodamine B assay relative to control; type: functional; conditions: read-out: Activity
# NCI-H522 = experiment: Growth inhibition of human NCI-H522 cells assessed as cell growth at 0.1 uM incubated for 48 hrs by sulforhodamine B assay relative to control; type: functional; conditions: NCI-H522, 48 h, read-out: Activity
# MDA-MB-468 [6] = experiment: Growth inhibition of human MDA-MB-468 cells incubated for 48 hrs by sulforhodamine B assay; type: functional, cell-based; conditions: MDA-MB-468, 48 h
# SF-539 = experiment: Growth inhibition of human SF539 cells assessed as cell growth at 0.01 uM incubated for 48 hrs by sulforhodamine B assay relative to control; type: functional; conditions: SF-539, 48 h, read-out: Activity
# HCT-15 = experiment: Growth inhibition of human HCT15 cells assessed as cell growth at 1 uM incubated for 48 hrs by sulforhodamine B assay relative to control; type: functional; conditions: HCT-15, 48 h, read-out: Activity
# CCRF-CEM [7] = experiment: Growth inhibition of human CCRF-CEM cells assessed as cell growth at 0.1 uM incubated for 48 hrs by sulforhodamine B assay relative to control; type: functional; conditions: read-out: Activity
# [8] = read-out: LC50 (the source's name)
# [9] = read-out: pLC50 (the source's name) (converted)
smiles,measurement,setting,value
O=C(Nc1cccc(-n2cc(-c3ccncc3)c(-c3cc(O)cc(Cl)c3)n2)c1)c1ccc(N2CCOCC2)c(C(F)(F)F)c1,growth at 0.1 µM,A549,97%
same,growth at 0.1 µM,COLO 205,104%
same,growth at 1 µM,CCRF-CEM [1],34%
same,GI50,SW-620; read-out: GI50,2530 nM
same,LC50,SW-620; read-out: LC50,> 100000 nM
same,TGI,SW-620; read-out: TGI,70600 nM
same,GI50,SW-620; read-out: pGI50 (converted),2820 nM
same,LC50,SW-620; read-out: pLC50 (converted),> 100000 nM
same,TGI,SW-620; read-out: pTGI (converted),7080 nM
same,growth at 1 µM,RPMI-8226,17%
same,growth at 0.1 µM,MDA-MB-435,69%
same,GI50,Malme-3M [2]; read-out: GI50,1380 nM
same,CC50,Malme-3M [2]; [8],> 100000 nM
same,TGI,Malme-3M [2]; read-out: TGI,51900 nM
same,GI50,Malme-3M [2]; read-out: pGI50 (converted),1380 nM
same,CC50,Malme-3M [2]; [9],> 100000 nM
same,TGI,Malme-3M [2]; read-out: pTGI (converted),5250 nM
same,growth at 0.01 µM,MDA-MB-231,100%
same,growth at 1 µM,SF-268,89%
same,growth at 100 µM,RXF 393,-39%
same,growth at 0.1 µM,SK-MEL-28,94%
same,growth at 1 µM,NCI/ADR-RES,79%
same,growth at 0.1 µM,PC-3,92%
same,growth at 1 µM,MDA-MB-468 [3],75%
same,growth at 100 µM,T47D,7%
same,growth at 100 µM,U-251,-69%
same,growth at 100 µM,HOP-62,-7%
same,growth at 100 µM,NCI-H460,-47%
same,growth at 0.1 µM,UACC-257,91%
same,growth at 100 µM,M14,-54%
same,GI50,NCI-H226; read-out: GI50,2560 nM
same,LC50,NCI-H226; read-out: LC50,> 100000 nM
same,TGI,NCI-H226; read-out: TGI,> 100000 nM
same,GI50,NCI-H226; read-out: pGI50 (converted),28800 nM
same,LC50,NCI-H226; read-out: pLC50 (converted),> 100000 nM
same,TGI,NCI-H226; read-out: pTGI (converted),> 100000 nM
same,growth at 0.1 µM,Malme-3M [4],85%
same,GI50,CCRF-CEM [5]; read-out: GI50,543 nM
same,CC50,CCRF-CEM [5]; [8],> 100000 nM
same,TGI,CCRF-CEM [5]; read-out: TGI,> 100000 nM
same,GI50,CCRF-CEM [5]; read-out: pGI50 (converted),562 nM
same,CC50,CCRF-CEM [5]; [9],> 100000 nM
same,TGI,CCRF-CEM [5]; read-out: pTGI (converted),> 100000 nM
same,growth at 0.1 µM,SK-MEL-5,91%
same,growth at 100 µM,NCI-H322M,21%
same,growth at 0.1 µM,NCI-H522,90%
same,IC50,MDA-MB-468 [6],3420 nM
same,GI50,MDA-MB-468 [6]; read-out: GI50,3420 nM
same,CC50,MDA-MB-468 [6]; [8],> 100000 nM
same,TGI,MDA-MB-468 [6]; read-out: TGI,43300 nM
same,GI50,MDA-MB-468 [6]; read-out: pGI50 (converted),3390 nM
same,CC50,MDA-MB-468 [6]; [9],> 100000 nM
same,TGI,MDA-MB-468 [6]; read-out: pTGI (converted),43700 nM
same,growth at 0.01 µM,SF-539,94%
same,growth at 1 µM,HCT-15,35%
same,growth at 0.1 µM,CCRF-CEM [7],95%
COc1cc(Cl)cc(-c2nn(-c3cccc(NC(=O)Nc4cc(C(F)(F)F)cc(C(F)(F)F)c4)c3)cc2-c2ccncc2)c1,growth at 0.1 µM,A549,95%
same,growth at 0.1 µM,COLO 205,98%
same,growth at 1 µM,CCRF-CEM [1],5%
same,IC50,SW-620,390 nM
same,GI50,SW-620; read-out: GI50,300 nM
same,LC50,SW-620; read-out: LC50,15 nM
same,TGI,SW-620; read-out: TGI,2000 nM
same,GI50,SW-620; read-out: pGI50 (converted),389 nM
same,LC50,SW-620; read-out: pLC50 (converted),15100 nM
same,TGI,SW-620; read-out: pTGI (converted),2000 nM
same,growth at 1 µM,RPMI-8226,-12%
same,growth at 0.1 µM,MDA-MB-435,98%
same,IC50,Malme-3M [2],530 nM
same,GI50,Malme-3M [2]; read-out: GI50,530 nM
same,CC50,Malme-3M [2]; [8],> 100000 nM
same,TGI,Malme-3M [2]; read-out: TGI,3570 nM
same,GI50,Malme-3M [2]; read-out: pGI50 (converted),537 nM
same,CC50,Malme-3M [2]; [9],> 100000 nM
same,TGI,Malme-3M [2]; read-out: pTGI (converted),3550 nM
same,growth at 0.01 µM,MDA-MB-231,97%
same,growth at 1 µM,SF-268,37%
same,growth at 100 µM,RXF 393,-92%
same,growth at 0.1 µM,SK-MEL-28,102%
same,growth at 1 µM,NCI/ADR-RES,48%
same,growth at 0.1 µM,PC-3,91%
same,growth at 1 µM,MDA-MB-468 [3],15%
same,growth at 100 µM,T47D,-22%
same,growth at 100 µM,U-251,-92%
same,growth at 100 µM,HOP-62,-60%
same,growth at 100 µM,NCI-H460,-84%
same,growth at 0.1 µM,UACC-257,94%
same,growth at 100 µM,M14,-82%
same,IC50,NCI-H226,700 nM
same,GI50,NCI-H226; read-out: GI50,704 nM
same,LC50,NCI-H226; read-out: LC50,> 100000 nM
same,TGI,NCI-H226; read-out: TGI,5170 nM
same,GI50,NCI-H226; read-out: pGI50 (converted),708 nM
same,LC50,NCI-H226; read-out: pLC50 (converted),> 100000 nM
same,TGI,NCI-H226; read-out: pTGI (converted),5130 nM
same,growth at 0.1 µM,Malme-3M [4],87%
same,IC50,CCRF-CEM [5],270 nM
same,GI50,CCRF-CEM [5]; read-out: GI50,273 nM
same,CC50,CCRF-CEM [5]; [8],> 100000 nM
same,TGI,CCRF-CEM [5]; read-out: TGI,1330 nM
same,GI50,CCRF-CEM [5]; read-out: pGI50 (converted),275 nM
same,CC50,CCRF-CEM [5]; [9],> 100000 nM
same,TGI,CCRF-CEM [5]; read-out: pTGI (converted),1350 nM
same,growth at 0.1 µM,SK-MEL-5,97%
same,growth at 100 µM,NCI-H322M,-78%
same,growth at 0.1 µM,NCI-H522,80%
same,IC50,MDA-MB-468 [6],340 nM
same,GI50,MDA-MB-468 [6]; read-out: GI50,336 nM
same,CC50,MDA-MB-468 [6]; [8],> 100000 nM
same,TGI,MDA-MB-468 [6]; read-out: TGI,2520 nM
same,GI50,MDA-MB-468 [6]; read-out: pGI50 (converted),339 nM
same,CC50,MDA-MB-468 [6]; [9],> 100000 nM
same,TGI,MDA-MB-468 [6]; read-out: pTGI (converted),2510 nM
same,growth at 0.01 µM,SF-539,100%
same,growth at 1 µM,HCT-15,17%
same,growth at 0.1 µM,CCRF-CEM [7],84%
